Measured values as given in US20160120825A1 (TIANJIN TAIPU PHARMACEUTICAL SCIENCE & TECHNOLOGY …, priority 2013, published 2016).
Where two headings read alike, the source gives them in different places.

Tests used:
[1] = tested on: brain nerve cells (hippocampal ventral dentate gyrus); details: adult rat, cited from earlier work
[2] = change of crystalline X-form raw material in pulverization, grinding, tabletting detected by DSC; type: physicochemical
Excerpt: Change of the crystalline X-form raw material in pulverization, grinding, and tabletting (at a pressure of 10 kg) was detected by DSC (see FIGS. 1-4).

[3] = solubility of crystalline X-form agomelatine in solvents; type: physicochemical
[4] = stability in the process (DSC crystal form purity, HPLC relevant substances); type: physicochemical; details: during formulation process
Excerpt: (§1) Referring to the aforementioned test 6, tablets were manufactured according to formulation and process with hydroxyproplyl methyl cellulose and polyvinylpyrrolindone k30 in a concentration of 15% as a protective agent.
Crystal form purity of the tablets was detected using DSC method with crystal forms and relevant substances as evaluation indexes. Regarding detection of relevant substances, HPLC method was adopted using imported drug as a standard.

[5] = test on influencing factors; type: physicochemical
Experimental: as §1
We investigated in combination with formulations of the present invention: the samples were allowed to stand in an open state for 30 days under the conditions of a high temperature of 60° C., a high humidity of RH 92%, and both high temperature and high humidity (40° C., RH75%), respectively. The results are as follows: Test results on influencing factors (%)

| Compound | cell proliferation and neuronal regeneration in hippocampal ventral dentate gyrus ([1]; acute or subacute administration (4 hours or nine weeks)) | cell proliferation and neuronal regeneration in hippocampal ventral dentate gyrus ([1]; long-term (three weeks) administration) | X-form crystal purity (%) detected by DSC ([2]; after grinding) | X-form crystal purity (%) detected by DSC ([2]; after pulverization) | X-form crystal purity (%) detected by DSC ([2]; after tabletting (pressure of 10 kg)) | X-form crystal purity (%) detected by DSC ([2]; untreated crystalline X-form) | solubility ([3]; in methanol, ethanol, acetonitrile, DMSO, etc.) | solubility ([3]; in water) | Crystal form purity ([4]; DSC) | Relevant substances ([4]; HPLC) | Crystal form purity % ([5]; 0 day) | Crystal form purity % ([5]; 10 days at a high humidity (RH 92%), open state) | Crystal form purity % ([5]; 10 days at a high temperature (60° C.), open state) | Crystal form purity % ([5]; 10 days at both high temperature and high humidity (40° C., RH75%), open state) |
| --- | --- | --- | --- | --- | --- | --- | --- | --- | --- | --- | --- | --- | --- | --- |
| COc1ccc2cccc(CCNC(C)=O)c2c1 [Agomelatine, agomelatine] | no similar situation occurred | could increase cell proliferation and neuronal regeneration | – | – | – | – | – | – | – | – | – | – | – | – |
| COc1ccc2cccc(CCNC(C)=O)c2c1 [agomelatine] | – | – | 75.1% | 79.4% | 57.7% | 100% | very soluble | almost insoluble | 100 | 0.42% | 100% | 85% | 68% | 57% |
